Patent US20160158267A1, “METHODS OF PREVENTING, REDUCING OR TREATING MACULAR DEGENERATION” (Inotek Pharmaceuticals Corporation, priority 2014, published 2016)
Values joined by “and” are separate entries in the source; they are usually repeats but may differ in a detail not shown here. Identical values can stand only once. Like-named read-outs stand apart in the source and are kept apart here.

Columns and labels:
A2A adenosine receptor = A2A adenosine receptor (Homo sapiens, UniProt P29274); test: Adenosine receptor binding, A1 > A2A selectivity; settings: ratio of Ki values
Sequence of A2A adenosine receptor (P29274 whole entry): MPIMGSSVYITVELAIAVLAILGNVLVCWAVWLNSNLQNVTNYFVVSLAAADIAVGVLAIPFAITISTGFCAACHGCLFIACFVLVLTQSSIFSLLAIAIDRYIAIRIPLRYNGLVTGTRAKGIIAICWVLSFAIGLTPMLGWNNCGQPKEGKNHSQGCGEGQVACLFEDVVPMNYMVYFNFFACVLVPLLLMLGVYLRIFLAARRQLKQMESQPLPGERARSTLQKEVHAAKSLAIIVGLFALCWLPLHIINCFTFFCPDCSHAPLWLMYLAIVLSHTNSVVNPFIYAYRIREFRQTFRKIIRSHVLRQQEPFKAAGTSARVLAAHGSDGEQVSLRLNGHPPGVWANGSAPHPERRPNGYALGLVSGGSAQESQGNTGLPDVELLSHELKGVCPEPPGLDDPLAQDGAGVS
Method: The cell suspension is then homogenized in ice-cold hypotonic buffer (5 mM Tris/HCl mM EDTA, pH 7.4) and the homogenate is spun for 10 minutes (4° C.) at 1,000 g.

[1] = target: T1, human adenosine A3 receptor (Homo sapiens, UniProt P0DMS8); test: Inhibition of forskolin-stimulated adenylyl cyclase via A3 receptor, CHO cell membranes; type: biochemical; settings: membranes of CHO cells stably transfected with human A3
T1 sequence (P0DMS8 1-318): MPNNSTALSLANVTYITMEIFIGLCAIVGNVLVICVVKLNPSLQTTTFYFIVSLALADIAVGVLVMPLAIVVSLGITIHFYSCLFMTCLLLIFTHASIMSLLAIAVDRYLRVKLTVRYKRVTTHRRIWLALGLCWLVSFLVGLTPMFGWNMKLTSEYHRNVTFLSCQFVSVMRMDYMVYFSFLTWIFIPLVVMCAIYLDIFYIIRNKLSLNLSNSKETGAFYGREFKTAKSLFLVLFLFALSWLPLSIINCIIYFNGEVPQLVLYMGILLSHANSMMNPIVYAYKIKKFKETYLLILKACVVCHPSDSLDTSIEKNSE
Method: The A1 and A3 receptor-mediated inhibition of forskolin-stimulated adenylyl cyclase activity was tested in membranes prepared from CHO cells stably transfected with the human A1 and A3 adenosine receptors.

BALB/c mice [2] = type: in vivo
Text: (§1) The rodent retina is widely used to investigate retinal diseases, as well as the response of central nervous system neurons to injury. Light-induced retinal damage (phototoxicity) selectively brings about photoreceptor cell death. Thus, this model is useful for studying the potential mechanisms underlying photoreceptor death and the subsequent retinal degeneration processes since it mimics the photoreceptor degeneration that forms the main characteristic of age-related macular degeneration.
(§2) Aliquots were removed from the refrigerator and allowed to warm to room temperature for at least 30 minutes before dosing. The positive control, BDNF, was reconstituted with 0.9% Sodium Chloride for Injection, USP at a concentration of 1 μg/μL. Any residual volumes were discarded.
(§3) Thirty-four (34) male BALB/c mice were received from Charles River, St Constant.
The dose volume for each eye/dose was 10 μL. The formulations were stirred continuously during dose administration and were retained on wet ice between doses.
(§4) The positive control, BDNF, was administered to Group 4 animals by single bilateral intravitreal (IVT) injection on Day 1. The dose volume was 1 μL/eye. Animals were anesthetized for the dosing procedure using an isoflurane/oxygen mix and/or a sedative cocktail (ketamine 100 mg/kg; xylazine 10 mg/kg; half or quarter dose if needed given by intraperitoneal injection). Injections were made using a glass microneedle connected to a Hamilton syringe via a sclera pilot hole created with a 30 G needle. A bland lubricating ointment was applied to the eyes following dosing.
On Day 2, animals were transferred to the blue light bins (housed individually). Light fixtures with bulbs emitting blue light (460 to 490 nm; Philips F40/BB Special Blue F40T12/BB) were attached to separate housing racks directly above the cages, such that all animals received similar light exposure. […] Hiding devices/tubes and bedding were not available in the bins.
The anesthetic used was ketamine (100 mg/kg) and xylazine (10 mg/kg).
All animals were euthanized on Day 8 and underwent exsanguination from the abdominal aorta after carbon dioxide asphyxiation.
One eye from each animal was embedded in paraffin, sectioned, mounted on glass slides, and stained with hematoxylin and eosin.
The outer nuclear layer (ONL) thickness (number of cell layers) were counted at 4 locations in the retina and a microscopic evaluation of the retina, including pigmented retinal epithelial cells, was conducted.

BALB/c mice [3] = type: in vivo; settings: for Group mean of the number of cell layers in retinal outer nuclear layer: placebo 7.22
Text: as §1, §2, §3
The test item and placebo were administered by twice-daily topical ocular instillation from Days 1 to 7, separated by at least 8 hours. The dose volume for each eye/dose was 10 μL. The formulations were stirred continuously during dose administration and were retained on wet ice between doses.
as §4
On Day 2, animals were transferred to the blue light bins (housed individually). Light fixtures with bulbs emitting blue light (460 to 490 nm; Philips F40/BB Special Blue F40T12/BB) were attached to separate housing racks directly above the cages, such that all animals received similar light exposure. The light intensity in the bins was measured using a light meter; the average intensity was 550 lux. Hiding devices/tubes and bedding were not available in the bins.
Mortality/moribundity checks were performed twice daily, once in the morning and once in the afternoon, throughout the study. Detailed examinations were performed weekly. Individual body weights were measured twice pre-treatment and at necropsy.
Electroretinography (ERG) was performed once pre-treatment and once at the end of Week 1 following overnight dark adaptation. The anesthetic used was ketamine (100 mg/kg) and xylazine (10 mg/kg).
All animals were euthanized on Day 8 and underwent exsanguination from the abdominal aorta after carbon dioxide asphyxiation. No necropsy examinations were performed.
One eye from each animal was embedded in paraffin, sectioned, mounted on glass slides, and stained with hematoxylin and eosin. The other eye was retained.
Histopathological evaluation was performed by a board-certified veterinary pathologist or veterinary pathologist with training and experience in laboratory animal pathology. The outer nuclear layer (ONL) thickness (number of cell layers) were counted at 4 locations in the retina and a microscopic evaluation of the retina, including pigmented retinal epithelial cells, was conducted. Representative images were captured for consultation and illustrative purposes.

O=[N+]([O-])OC[C@H]1O[C@@H](n2cnc3c(NC4CCOC4)ncnc32)[C@H](O)[C@@H]1O (stereo partly drawn) [Compound D, ((2R,3S,4R,5R)-3,4-dihydroxy-5-(6-(tetrahydrofuran-3-ylamino)-9H-purin-9-yl)tetrahydrofuran-2-yl)methyl nitrate]
A1 > A2A SELECTIVITY [KiA2(nm)/KiA1(nm)] (A2A adenosine receptor): >9434

O=[N+]([O-])OC[C@H]1O[C@@H](n2cnc3c(NC4CCCC4)ncnc32)[C@H](O)[C@@H]1O [Compound A, ((2R,3S,4R,5R)-5-(6-(cyclopentylamino)-9H-purin-9-yl)-3,4-dihydroxytetrahydrofuran-2-yl)methyl nitrate]
EC50 [1]: > 100000 nM
Average number of cell layers in the ONL, placebo compared to treated group (BALB/c mice [2]; 600 or 900 μg/eye/day topical): reduced in the placebo group
B-wave amplitude following 0 dB scotopic flash stimuli (BALB/c mice [2]; 600 or 900 μg/eye/day, versus placebo control, comparable to BDNF positive control): higher
Number of nuclear bodies in the ONL based on average ONL thickness counts (BALB/c mice [2]; low dose group (600 μg/eye/day), compared with all groups): retained the greatest number of nuclear bodies in the ONL
Overall ERG function and ONL cellularity after blue light exposure (BALB/c mice [2]; two or three-times daily at 600 or 900 μg/eye/day topical, 1100 lux for 6 hours on Day 2): preservation of ERG function and cellularity in the ONL layer of the retina
Incidence of minimal to moderate decrease in cellularity of the retina (BALB/c mice [3]; 300 μg/eye/day topical, placebo 6/8): 7/8
Group mean of the number of cell layers in retinal outer nuclear layer (BALB/c mice [3]; 300 μg/eye/day topical): 7.28 layers
Incidence of minimally decreased retinal cellularity (BALB/c mice [3]; 600 μg/eye/day topical, other animals not affected at all): 2/8
Group mean of the number of cell layers in retinal outer nuclear layer (BALB/c mice [3]; 600 μg/eye/day topical): 8.56 layers
Overall effect on incidence and severity of decreased retinal cellularity (BALB/c mice [3]; 600 μg/eye/day, 7 days twice daily topical ocular instillation): protective effect
Retinal outer nuclear layer thickness (Mean number of nuclei), individual animals (BALB/c mice [3]; Group 2, low dose 300 μg/eye/day, animals 2001-2008, mean of 4 measurements per retina): 10.00 and 9.25 and 6.50 and 5.25 and 7.25 and 6.25 and 5.50 and 8.25
Retinal outer nuclear layer thickness (Mean number of nuclei), individual animals (BALB/c mice [3]; Group 3, high dose 600 μg/eye/day, animals 3001-3008, mean of 4 measurements per retina): 9.25 and 9.00 and 9.75 and 7.75 (2×) and 9.50 and 8.75 and 6.75
Abnormalities in general appearance or condition of the animals (BALB/c mice [3]; male BALB/c mice, dosing period, 300 or 600 μg/eye/day topical twice daily Days 1 to 7): No abnormalities were observed
ERG parameters (scotopic single flash 0 dB, A-wave and B-wave) (BALB/c mice [3]; one week after blue light exposure, 300 or 600 μg/eye/day, versus other groups including placebo): comparable across treatment groups

B1: BDNF: Brain Derived Neurotrophic Factor, positive control given by single bilateral intravitreal injection (protein, UniProt P23560 19-247, looked up)
Neurotrophic factor BDNF …: APMKEANIRGQGGLAYPGVRTHGTLESVNGPKAGSRGLTSLADTFEHVIEELLDEDQKVRPNEENNKDADLYTSRVMLSSQVPLEPPLLFLLEEYKNYLDAANMSMRVRRHSDPARRGELSVCDSISEWVTAADKKTAVDMSGGTVTVLEKVPVSKGQLKQYFYETKCNPMGYTKEGCRGIDKRHWNSQCRTTQSYVRALTMDSKKRIGWRFIRIDTSCVCTLTIKRGR
Average number of cell layers in the ONL, placebo compared to treated group (BALB/c mice [2]; BDNF control, 1 μg/eye IVT): reduced in the placebo group
Group mean of the number of cell layers in retinal outer nuclear layer (BALB/c mice [3]; 1 μg/eye single IVT injection Day 1): 8.75 layers
Retinal outer nuclear layer thickness (Mean number of nuclei), individual animals (BALB/c mice [3]; Group 4, 1 μg/eye/day IVT, animals 4001-4008, mean of 4 measurements per retina): 7.75 (2×) and 9.25 and 8.50 (2×) and 8.75 and 10.50 and 9.00
